We go through one compound from patent US20220409617A1, “Drug Formulations and Methods of Treatment for Metabolic Disorders” (The Regents of the University of California, priority 2019, published 2022).

The nature of experiment [1]: Home-cage feeding study with suboptimal leptin (leptin sensitization). The experiment is classed as in vivo, mouse. An excerpt:
Leptin is secreted by adipocytes in proportion to their triglyceride content, signaling to the CNS when peripheral energy stores are full and food consumption should decrease. In HFD-fed mice, chronic increases in adiposity lead to elevations in circulating leptin with no accompanying decrease in food intake, a state that has been termed leptin-resistant. Reducing leptin levels in the blood restores leptin signaling in the hypothalamus (S. Zhao, et al., 2019, cited supra). Thus, the sphingolipid-like compound 893 should function as a leptin-sensitizing agent. To test this model, 18 week old lean, male C57BL/6J mice were treated intraperitoneally with a suboptimal dose of recombinant leptin at ZT8.5 and food intake and body weight measured over the next 18 h. […] In summary, the reduction in food intake in sphingolipid-like compound 893-treated mice is consistent with the reversal of mitochondrial fragmentation in the hypothalamus and likely due in part to the re-sensitization of anorexigenic POMG neurons to leptin when plasma leptin levels are decreased.
Mice were singly housed and allowed to acclimate for 72 h before food intake was monitored. Food consumption was determined by monitoring the weight of food in the hopper. Initial food and body weight measurements were taken at ZT9 and final measurements were taken 16 h later to capture the active period where most consumption occurred. Home cage feeding studies were performed with C57BL/6J mice maintained on a HFD for 24 weeks (33 weeks of age), or ob/ob mice at 8 weeks of age. Mice received vehicle or 120 mg/kg sphingolipid-like compound 893 by gavage at ZT8.5. For experiments involving leptin, 18 week old, SD fed (16% kcal from fat, 2020×, Envigo) C57BL/6J mice received vehicle or 120 mg/kg sphingolipid-like compound 893 by gavage at ZT8.5. […] One ob/ob mouse died during Echo MRI for unknown reasons after 6 d of treatment with sphingolipid-like compound 893; data from this mouse was analyzed prior to death.

The target in the next experiment is PIKfyve (Homo sapiens, UniProt Q9Y2I7). The note with it: cited from earlier work.
The test system of experiment [2] is hepatic lipid accumulation. Description: Hepatic steatosis and lipidomic profiling of liver and quadriceps muscle. The note with it: HFD-fed mice. The experiment is classed as in vivo, mouse. As for the experimental part:
Lipids were extracted from liver and quadriceps tissue using a modified MTBE method (Matyash et al, 2008; Abbott et al, 2013). Briefly, 10 mg/ml of tissue was homogenized in ice-cold 150 mM ammonium acetate using a bead homogenizer (1.4 mm ceramic) kept below 4° C. using liquid nitrogen vapor (Precellys 24 homogenizer with Cryolys cooling unit, Bertin Technologies, Montigny-le-Bretonneux, France). From this, 20 μl of homogenized tissues were added to glass vials containing MTBE and methanol (3:1 v/v, with 0.01% BHT), alongside 10 μl of an internal standard solution containing 10 μM each: phosphatidylcholine (PC) 17:0/17:0, phosphatidylethanolamine (PE) 17:0/17:0, phosphatidylserine (PS) 17:0/17:0, phosphatidylglycerol (PG) 17:0/17:0, lysophosphatidylcholine (LPC) 17:0, lysophosphatidylethanolamine (LPE) 14:0, ceramide (Cer) d18:1/17:0, dihydrosphingomyelin d18:0/12:0, diacylglycerol (DAG) 17:0/17:0, D5-triacylglycerol (TAG) 48:0, and cholesteryl ester (CE) 22:1. Samples were allowed to rotate at 4° C. overnight prior to the addition of 1 volume of ice-cold 150 mM ammonium acetate. Samples were vortexed thoroughly prior to centrifugation (2000×g, 5 min) to enable phase separation. […]
Extracted lipids were analyzed by liquid chromatography-mass spectrometry (LC-MS) using a Dionex Ultimate 3000 LC pump and Q Exactive Plus mass spectrometer equipped with a heated electrospray ionization (HESI) source (Thermo Fisher Scientific). […] Data were acquired in full scan/data-dependent MS2 mode (full scan resolution 70,000 FWHM, max ion injection time 50 ms, scan range m/z 200-1500), with the 10 most abundant ions being subjected to collision-induced dissociation using an isolation window of 1.5 Da and a normalized stepped collision energy of 15/27 eV, with product ions detected at a resolution of 17,500. […]
Lipids were analyzed using MS-DIAL (Tsugawa et al, 2015). Lipids were detected in both positive and negative ionization modes using a minimum peak height of 1×10^4 cps, a MS1 tolerance of 5 ppm and MS2 tolerance of 10 ppm, and a minimum identification score of 50%. […]

Chain of PIKfyve (Q9Y2I7 whole entry, species assumed): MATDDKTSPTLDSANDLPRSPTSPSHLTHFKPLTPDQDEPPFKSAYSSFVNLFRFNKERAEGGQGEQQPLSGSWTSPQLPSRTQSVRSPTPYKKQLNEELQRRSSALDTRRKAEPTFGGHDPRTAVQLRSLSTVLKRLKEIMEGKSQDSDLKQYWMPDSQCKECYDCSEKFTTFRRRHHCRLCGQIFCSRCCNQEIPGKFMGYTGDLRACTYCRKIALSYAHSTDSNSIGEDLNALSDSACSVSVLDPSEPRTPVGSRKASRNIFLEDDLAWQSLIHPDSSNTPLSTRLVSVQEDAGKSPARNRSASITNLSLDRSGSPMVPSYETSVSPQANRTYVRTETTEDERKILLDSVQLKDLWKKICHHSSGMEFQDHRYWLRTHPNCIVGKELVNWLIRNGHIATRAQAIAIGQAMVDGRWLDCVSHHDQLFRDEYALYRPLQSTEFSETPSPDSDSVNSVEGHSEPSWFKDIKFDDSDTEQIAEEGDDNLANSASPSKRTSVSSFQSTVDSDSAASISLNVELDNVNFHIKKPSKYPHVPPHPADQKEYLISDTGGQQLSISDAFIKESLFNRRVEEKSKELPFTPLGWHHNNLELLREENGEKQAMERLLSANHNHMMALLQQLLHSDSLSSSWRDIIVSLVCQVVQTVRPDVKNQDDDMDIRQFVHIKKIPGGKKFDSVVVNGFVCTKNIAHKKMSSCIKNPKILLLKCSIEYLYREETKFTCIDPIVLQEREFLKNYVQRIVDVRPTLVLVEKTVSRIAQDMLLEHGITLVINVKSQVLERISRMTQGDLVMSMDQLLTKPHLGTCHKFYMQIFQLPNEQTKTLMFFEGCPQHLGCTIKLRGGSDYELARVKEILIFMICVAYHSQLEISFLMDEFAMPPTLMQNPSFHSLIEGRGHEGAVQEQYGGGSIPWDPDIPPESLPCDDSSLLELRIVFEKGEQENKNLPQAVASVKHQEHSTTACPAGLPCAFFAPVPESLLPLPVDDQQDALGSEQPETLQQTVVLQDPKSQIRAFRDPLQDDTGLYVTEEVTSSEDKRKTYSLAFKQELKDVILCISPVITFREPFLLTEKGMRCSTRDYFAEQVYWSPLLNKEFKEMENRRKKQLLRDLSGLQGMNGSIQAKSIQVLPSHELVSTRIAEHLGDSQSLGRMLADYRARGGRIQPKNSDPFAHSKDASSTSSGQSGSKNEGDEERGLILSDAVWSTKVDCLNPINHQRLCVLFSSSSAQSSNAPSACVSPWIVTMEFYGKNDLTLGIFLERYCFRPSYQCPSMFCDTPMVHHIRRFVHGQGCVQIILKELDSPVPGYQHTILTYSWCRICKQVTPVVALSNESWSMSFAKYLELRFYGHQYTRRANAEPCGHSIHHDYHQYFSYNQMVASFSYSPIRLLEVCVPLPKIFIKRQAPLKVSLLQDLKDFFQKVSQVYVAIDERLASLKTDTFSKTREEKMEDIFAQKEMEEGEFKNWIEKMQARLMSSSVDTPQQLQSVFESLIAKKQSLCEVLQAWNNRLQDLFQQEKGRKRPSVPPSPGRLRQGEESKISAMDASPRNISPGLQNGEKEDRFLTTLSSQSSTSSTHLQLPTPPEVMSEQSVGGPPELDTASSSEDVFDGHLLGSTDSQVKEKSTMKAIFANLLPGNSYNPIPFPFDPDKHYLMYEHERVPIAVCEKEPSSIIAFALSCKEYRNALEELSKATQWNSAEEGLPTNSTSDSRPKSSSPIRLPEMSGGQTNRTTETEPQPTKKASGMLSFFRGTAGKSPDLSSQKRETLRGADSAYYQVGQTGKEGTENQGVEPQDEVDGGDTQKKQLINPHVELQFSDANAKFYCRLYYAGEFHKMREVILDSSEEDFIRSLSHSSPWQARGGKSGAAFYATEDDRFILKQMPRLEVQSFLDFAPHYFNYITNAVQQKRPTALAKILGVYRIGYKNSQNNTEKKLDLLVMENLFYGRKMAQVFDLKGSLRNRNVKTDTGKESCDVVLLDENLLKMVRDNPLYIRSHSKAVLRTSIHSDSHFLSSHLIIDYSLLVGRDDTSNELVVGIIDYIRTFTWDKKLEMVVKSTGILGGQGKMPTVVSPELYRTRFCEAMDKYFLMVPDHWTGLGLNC

As for `CCCCCCCCc1ccc([C@H]2CCN[C@@H]2CO)cc1.Cl` [compound 893], the “Food intake and body weight over 18 h, single agent” value in experiment [1] (lean chow-fed 18 week old mice, leptin 2 mg/kg i.p. or 893 120 mg/kg by gavage) is “trend towards reduced food intake and body weight”. Also, in experiment [1] (lean chow-fed mice, 893 120 mg/kg by gavage plus leptin 2 mg/kg i.p.), the “Food intake and body weight over 18 h, combined with leptin” value is “statistically significant decrease in food intake and body weight”. The “Effect on PIKfyve” value at PIKfyve is given as “inactivates”. In experiment [2] (120 mg/kg), the Hepatic steatosis entry was “eliminated hepatic steatosis”. Also, the “Liver triglyceride and ceramide levels” value in experiment [2] (treated for 4 weeks) is “restored normal triglyceride and ceramide levels in the liver”. Moreover, the Muscle ceramide levels result in experiment [2] (treated for 4 weeks, quadriceps) was “ceramide levels trended lower in muscle”.
